Results taken from patent US8436012B2, “Imidazopyridin-2-one derivatives” (Daiichi Sankyo Company, Limited, priority 2008, dated 2013).

Legend:
human mTOR = target: T1, human mTOR (Homo sapiens, UniProt P42345); assay: mTOR Kinase Activity Inhibition Test; assay type: biochemical; conditions: His-tagged mTOR (1362C), biotinylated peptide substrate, ATP, 3 hours at room temperature, fluorescence resonance energy transfer 665 nm/620 nm; read-out: IC50 value of mTOR enzyme inhibitory activity
T1 construct: the portion corresponding to 1362-2549aa at the C terminus of human mTOR; made in house
Method: The kinase activity of mTOR was measured in the presence or absence of a test compound. A substrate peptide is phosphorylated by mTOR kinase activity. A complex of streptavidin-XL665 and anti-phosphorylated S6K (Thr389) antibody/anti-mouse IgG-cryptate binds to this phosphorylated peptide. At this moment, fluorescence resonance energy transfer takes place from antibody/anti-mouse IgG-cryptate exposed to light excitation to XL665, which results in emission of fluorescence at 665 nm. The mTOR kinase activity is detected using this principle.
(1) Sample Preparation and Enzymatic Reaction
An HEK293 cell line that constitutively expresses a His tag fused human mTOR has been established. His tag was introduced into the N terminus of the portion corresponding to 1362-2549aa at the C terminus of human mTOR. Cell lysate was prepared from this HEK293 cell line constitutively expressing His-tagged mTOR (1362C), and His-tagged mTOR (1362C) was purified using the His tag affinity according to a conventional method.
Next, an mTOR enzyme solution was prepared, which contains the aforementioned His-tagged mTOR (1362C) enzyme, 8 μg/mL of biotinylated peptide (Biotin-Ahx-[…]-amide (Sigma)), as well as 50 mM HEPES (pH 7.5), 20 mM MnCl2, 1 mg/ml BSA, an appropriate amount of protease inhibitor cocktail (Complete EDTA free, Roche), 100 ng/ml Calyculin A, 4 μg/ml Cantharidin and 10 mM DTT as other components.
The test compound was dissolved in DMSO, and serial dilutions were prepared with 20 μM ATP solution (50 mM HEPES (pH 7.5), 20 μM ATP) to achieve concentrations necessary for the assay. 5 μL of this compound solution was applied to each well of a 384 well small volume white Greiner plate.
5 μL of mTOR enzyme solution was added to the aforementioned well containing the test compound. After mixing, the mixture was incubated at room temperature for 3 hours to carry out the enzymatic reaction.
The same operation was performed with a solution of DMSO in 20 μM ATP solution as a positive control and with a solution of DMSO in 50 mM HEPES (pH 7.5) as a negative control.
(2) Detection of Enzymatic Reaction
After the enzymatic reaction, 5 μl each of an europium solution (a solution of anti-mouse IgG-cryptate (SCETI Medical Labo K.K.) and anti-phosphorylated S6K (Thr389) antibody (Cell Signaling Technology Inc.) in 50 mM HEPES (pH 7.5), 100 mM EDTA and 1.5 mg/ml BSA) and an XL665 solution (a solution of streptavidin-XL665 (SCETI Medical Labo K.K.) in 50 mM HEPES (pH 7.5), 100 mM EDTA, 0.8 M KF and 1.5 mg/ml BSA) were added in this order and then mixed. The mixture was incubated at 4° C. overnight. On the following day, the mixture was returned to room temperature and irradiated with excitation light at 337 nm. Fluorescence at 620 nm and fluorescence at 665 nm were measured with RUBYstar (BMG).
The mTOR inhibitory activity (%) was calculated using the ratio calculated from the measured values as an index of enzyme activity. Here, the ratio was calculated from the following formula (I). Ratio=10000×665 nm fluorescence value/620 nm fluorescence value (1)
The mTOR enzyme inhibitory activity (%) was calculated from the following formula (2). mTOR enzyme inhibitory activity (%)=100×[(P−S)/(P−N)] (2)
P: Ratio in well of positive control
N: Ratio in well of negative control
S: Ratio in well containing test compound
Further, an optimal curve was calculated based upon each concentration of the test compound prepared in serial dilutions and the mTOR enzyme inhibitory activity (%) at that concentration. The concentration at which 50% inhibition occurred was calculated as the IC50 value of mTOR enzyme inhibitory activity.

WM-266-4 cells = assay: Cell Proliferation Inhibitory Test; assay type: cell-based; conditions: Homo sapiens, 72 h, cultured three days with test compound, MTT, read-out: 50% cell proliferation inhibitory activity (GI50 value)
Method: WM-266-4 cells (ATCC, USA) were seeded in a 96-well plate and cultured overnight. Then, serial dilutions of the sample containing the test compound were prepared, added to each well and cultured another three days. Thereafter, the cell amount in each well was measured by MTT (MOSMANN, T., Rapid colorimetric assay for cellular growth and survival: application to proliferation and cytotoxicity assays. J. Immunol. Methods, 65, 55-63 (1983)). The 50% cell proliferation inhibitory activity (GI50 value) was calculated from the following formula (3). 100×[(T−T0)/(C−T0)]=50 (3)
Here, T represents values from the test compound added wells, C represents the value from the well to which the test compound was not added for three days, and To represents an initial measured value at the time of addition of the test compound.

T1 sequence (P42345 1362-2549): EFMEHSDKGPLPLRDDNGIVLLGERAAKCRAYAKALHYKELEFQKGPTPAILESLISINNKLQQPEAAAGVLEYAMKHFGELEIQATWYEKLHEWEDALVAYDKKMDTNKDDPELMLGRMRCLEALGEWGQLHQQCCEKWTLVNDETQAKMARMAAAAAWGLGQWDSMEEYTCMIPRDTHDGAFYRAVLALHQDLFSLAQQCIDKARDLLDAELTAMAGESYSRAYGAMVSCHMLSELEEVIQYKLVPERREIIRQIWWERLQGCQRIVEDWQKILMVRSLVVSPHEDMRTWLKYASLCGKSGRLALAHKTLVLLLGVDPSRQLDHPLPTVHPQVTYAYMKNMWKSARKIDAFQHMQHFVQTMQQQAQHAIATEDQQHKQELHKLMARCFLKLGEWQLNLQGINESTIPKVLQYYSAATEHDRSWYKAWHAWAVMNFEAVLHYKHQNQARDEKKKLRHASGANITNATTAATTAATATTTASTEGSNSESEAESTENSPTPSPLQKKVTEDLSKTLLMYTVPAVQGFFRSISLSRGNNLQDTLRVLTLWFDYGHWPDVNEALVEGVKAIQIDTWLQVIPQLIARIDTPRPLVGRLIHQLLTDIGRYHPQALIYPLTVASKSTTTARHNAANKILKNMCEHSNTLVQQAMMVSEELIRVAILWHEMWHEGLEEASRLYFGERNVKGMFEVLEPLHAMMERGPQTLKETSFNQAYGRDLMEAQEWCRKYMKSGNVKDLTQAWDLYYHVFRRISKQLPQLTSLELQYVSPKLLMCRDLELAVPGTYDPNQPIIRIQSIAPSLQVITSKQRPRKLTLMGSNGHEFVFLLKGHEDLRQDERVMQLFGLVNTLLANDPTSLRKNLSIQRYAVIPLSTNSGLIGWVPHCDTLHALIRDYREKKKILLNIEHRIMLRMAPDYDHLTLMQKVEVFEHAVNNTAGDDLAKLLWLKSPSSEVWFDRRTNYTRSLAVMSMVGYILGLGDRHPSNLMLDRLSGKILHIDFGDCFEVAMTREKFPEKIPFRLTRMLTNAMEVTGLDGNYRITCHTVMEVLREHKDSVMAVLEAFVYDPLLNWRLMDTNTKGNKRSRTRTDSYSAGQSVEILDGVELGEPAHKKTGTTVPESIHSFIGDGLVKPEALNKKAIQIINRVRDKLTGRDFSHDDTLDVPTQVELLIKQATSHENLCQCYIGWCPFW

Row | Structure (SMILES) | IC50 (human mTOR) [nM] | GI50 (WM-266-4 cells) [nM]
1 | Cc1c(-c2cnc3[nH]c(=O)n(C[C@H]4CC[C@@H](O)CO4)c3c2)cnc2[nH]ccc12 (racemic) [Example 141, 2,6-Anhydro-1,3,4-trideoxy-1-[6-(4-methyl-1H-pyrrolo[2,3-b]pyridin-5-yl)-2-oxo-2,3-dihydro-1H-imidazo[4,5-b]pyridin-1-yl]-DL-threo-hexitol] | < 50 | < 3000
2 | CO[C@@H]1CC[C@H](Cn2c(=O)[nH]c3ncc(-c4cnc5[nH]ccc5c4C)cc32)OC1 (racemic) [Example 142, 2,6-Anhydro-1,3,4-trideoxy-5-O-methyl-1-[6-(4-methyl-1H-pyrrolo[2,3-b]pyridin-5-yl)-2-oxo-2,3-dihydro-1H-imidazo[4,5-b]pyridin-1-yl]-DL-threo-hexitol] | < 50 | < 3000
3 | O=c1[nH]c2ncc(-c3ccc4[nH]ccc4c3)cc2n1CC1CC1 [Example 1, 1-(Cyclopropylmethyl)-6-(1H-indol-5-yl)-1,3-dihydro-2H-imidazo[4,5-b]pyridin-2-one] | < 50 | < 3000
4 | O=c1[nH]c2ncc(-c3ccc4[nH]ccc4c3)cc2n1C1CCOCC1 [Example 2, 6-(1H-Indol-5-yl)-1-(tetrahydro-2H-pyran-4-yl)-1,3-dihydro-2H-imidazo[4,5-b]pyridin-2-one] | 100 to 5000 | < 3000
5 | O=c1[nH]c2ncc(-c3ccc4[nH]ccc4c3)cc2n1CCC1CCOCC1 [Example 3, 6-(1H-Indol-5-yl)-1-[2-(tetrahydro-2H-pyran-4-yl)ethyl]-1,3-dihydro-2H-imidazo[4,5-b]pyridin-2-one] | < 50 | < 3000
6 | O=c1[nH]c2ncc(-c3ccc4[nH]ccc4c3)cc2n1CC1CCOCC1 [Example 4, 6-(1H-Indol-5-yl)-1-(tetrahydro-2H-pyran-4-ylmethyl)-1,3-dihydro-2H-imidazo[4,5-b]pyridin-2-one] | < 50 | < 3000
7 | O=c1[nH]c2ncc(-c3cnc4ccccc4c3)cc2n1CC1CCOCC1 [Example 5, 6-Quinolin-3-yl-1-(tetrahydro-2H-pyran-4-ylmethyl)-1,3-dihydro-2H-imidazo[4,5-b]pyridin-2-one] | < 50 | < 3000
8 | O=c1[nH]c2ncc(-c3ccc4[nH]ccc4c3)cc2n1CC1CCCCC1 [Example 6, 1-(Cyclohexylmethyl)-6-(1H-indol-5-yl)-1,3-dihydro-2H-imidazo[4,5-b]pyridin-2-one] | < 50 | < 3000
9 | Cc1nc2[nH]c(=O)n(CC3CCOCC3)c2cc1-c1ccc2[nH]ccc2c1 [Example 7, 6-(1H-Indol-5-yl)-5-methyl-1-(tetrahydro-2H-pyran-4-ylmethyl)-1,3-dihydro-2H-imidazo[4,5-b]pyridin-2-one] | < 50 | < 3000
10 | Cc1c(-c2ccc3[nH]ccc3c2)cnc2[nH]c(=O)n(CC3CCOCC3)c12 [Example 8, 6-(1H-Indol-5-yl)-7-methyl-1-(tetrahydro-2H-pyran-4-ylmethyl)-1,3-dihydro-2H-imidazo[4,5-b]pyridin-2-one] | 100 to 5000 | 3000 to 25000
11 | CS(=O)(=O)N1CCC(Cn2c(=O)[nH]c3ncc(-c4ccc5[nH]ccc5c4)cc32)CC1 [Example 9, 6-(1H-Indol-5-yl)-1-{[1-(methanesulfonyl)piperidin-4-yl]methyl}-1,3-dihydro-2H-imidazo[4,5-b]pyridin-2-one] | < 50 | < 3000
12 | O=c1[nH]c2ncc(-c3ccc4ncccc4c3)cc2n1CC1CCOCC1 [Example 10, 6-Quinolin-6-yl-1-(tetrahydro-2H-pyran-4-ylmethyl)-1,3-dihydro-2H-imidazo[4,5-b]pyridin-2-one] | < 50 | 3000 to 25000
13 | O=c1[nH]c2ncc(-c3ccc4[nH]ncc4c3)cc2n1CC1CCOCC1 [Example 14, 6-(1H-Indazol-5-yl)-1-(tetrahydro-2H-pyran-4-ylmethyl)-1,3-dihydro-2H-imidazo[4,5-b]pyridin-2-one] | 100 to 5000 | 3000 to 25000
14 | O=c1[nH]c2ncc(-c3cnc4[nH]ccc4c3)cc2n1CC1CCOCC1 [Example 15, 6-(1H-Pyrrolo[2,3-b]pyridin-5-yl)-1-(tetrahydro-2H-pyran-4-ylmethyl)-1,3-dihydro-2H-imidazo[4,5-b]pyridin-2-one] | < 50 | < 3000
15 | Cc1nc2[nH]ccc2cc1-c1cnc2[nH]c(=O)n(CC3CCOCC3)c2c1 [Example 16, 6-(6-Methyl-1H-pyrrolo[2,3-b]pyridin-5-yl)-1-(tetrahydro-2H-pyran-4-ylmethyl)-1,3-dihydro-2H-imidazo[4,5-b]pyridin-2-one] | < 50 | < 3000
16 | Cc1nc2[nH]c(=O)n(CC3CCOCC3)c2cc1-c1cnc2[nH]ccc2c1 [Example 17, 5-Methyl-6-(1H-pyrrolo[2,3-b]pyridin-5-yl)-1-(tetrahydro-2H-pyran-4-ylmethyl)-1,3-dihydro-2H-imidazo[4,5-b]pyridin-2-one] | < 50 | < 3000
17 | Cc1c(-c2cnc3[nH]ccc3c2)cnc2[nH]c(=O)n(CC3CCOCC3)c12 [Example 18, 7-Methyl-6-(1H-pyrrolo[2,3-b]pyridin-5-yl)-1-(tetrahydro-2H-pyran-4-ylmethyl)-1,3-dihydro-2H-imidazo[4,5-b]pyridin-2-one] | < 50 | < 3000
18 | O=c1[nH]c2ncc(-c3cnc4[nH]ccc4c3)cc2n1C1CCOCC1 [Example 19, 6-(1H-Pyrrolo[2,3-b]pyridin-5-yl)-1-(tetrahydro-2H-pyran-4-yl)-1,3-dihydro-2H-imidazo[4,5-b]pyridin-2-one] | < 50 | < 3000
19 | O=c1[nH]c2ncc(-c3cnc4[nH]ccc4c3)cc2n1CCC1CCOCC1 [Example 20, 6-(1H-Pyrrolo[2,3-b]pyridin-5-yl)-1-[2-(tetrahydro-2H-pyran-4-yl)ethyl]-1,3-dihydro-2H-imidazo[4,5-b]pyridin-2-one] | < 50 | < 3000
20 | O=c1[nH]c2ncc(-c3cnc4[nH]ccc4c3)cc2n1CC1CC1 [Example 21, 1-(Cyclopropylmethyl)-6-(1H-pyrrolo[2,3-b]pyridin-5-yl)-1,3-dihydro-2H-imidazo[4,5-b]pyridin-2-one] | < 50 | < 3000
21 | O=c1[nH]c2ncc(-c3cc4ccccc4[nH]3)cc2n1CC1CCOCC1 [Example 23, 6-(1H-Indol-2-yl)-1-(tetrahydro-2H-pyran-4-ylmethyl)-1,3-dihydro-2H-imidazo[4,5-b]pyridin-2-one] | < 50 | < 3000
22 | CC(C1CCOCC1)n1c(=O)[nH]c2ncc(-c3cnc4[nH]ccc4c3)cc21 (centres unmarked) [Example 24, 6-(1H-Pyrrolo[2,3-b]pyridin-5-yl)-1-[1-(tetrahydro-2H-pyran-4-yl)ethyl]-1,3-dihydro-2H-imidazo[4,5-b]pyridin-2-one] | < 50 | < 3000
